Structures are written as SMILES. Active and inactive are the calls of the source. The calls are words filed in the database; no cut-off is given here.

We go through one compound from ChEMBL document CHEMBL5252515, “Discovery of 6-Amino-2-{[(1S)-1-methylbutyl]oxy}-9-[5-(1-piperidinyl)pentyl]-7,9-dihydro-8H-purin-8-one (GSK2245035), a Highly Potent and Selective Intranasal Toll-Like Receptor 7 Agonist for the Treatment of Asthma” (J Med Chem, 2016).

For series [1], the target named is T1, Toll-like receptor 7 (Macaca fascicularis) (UniProt B3Y652).
T1 sequence (whole entry): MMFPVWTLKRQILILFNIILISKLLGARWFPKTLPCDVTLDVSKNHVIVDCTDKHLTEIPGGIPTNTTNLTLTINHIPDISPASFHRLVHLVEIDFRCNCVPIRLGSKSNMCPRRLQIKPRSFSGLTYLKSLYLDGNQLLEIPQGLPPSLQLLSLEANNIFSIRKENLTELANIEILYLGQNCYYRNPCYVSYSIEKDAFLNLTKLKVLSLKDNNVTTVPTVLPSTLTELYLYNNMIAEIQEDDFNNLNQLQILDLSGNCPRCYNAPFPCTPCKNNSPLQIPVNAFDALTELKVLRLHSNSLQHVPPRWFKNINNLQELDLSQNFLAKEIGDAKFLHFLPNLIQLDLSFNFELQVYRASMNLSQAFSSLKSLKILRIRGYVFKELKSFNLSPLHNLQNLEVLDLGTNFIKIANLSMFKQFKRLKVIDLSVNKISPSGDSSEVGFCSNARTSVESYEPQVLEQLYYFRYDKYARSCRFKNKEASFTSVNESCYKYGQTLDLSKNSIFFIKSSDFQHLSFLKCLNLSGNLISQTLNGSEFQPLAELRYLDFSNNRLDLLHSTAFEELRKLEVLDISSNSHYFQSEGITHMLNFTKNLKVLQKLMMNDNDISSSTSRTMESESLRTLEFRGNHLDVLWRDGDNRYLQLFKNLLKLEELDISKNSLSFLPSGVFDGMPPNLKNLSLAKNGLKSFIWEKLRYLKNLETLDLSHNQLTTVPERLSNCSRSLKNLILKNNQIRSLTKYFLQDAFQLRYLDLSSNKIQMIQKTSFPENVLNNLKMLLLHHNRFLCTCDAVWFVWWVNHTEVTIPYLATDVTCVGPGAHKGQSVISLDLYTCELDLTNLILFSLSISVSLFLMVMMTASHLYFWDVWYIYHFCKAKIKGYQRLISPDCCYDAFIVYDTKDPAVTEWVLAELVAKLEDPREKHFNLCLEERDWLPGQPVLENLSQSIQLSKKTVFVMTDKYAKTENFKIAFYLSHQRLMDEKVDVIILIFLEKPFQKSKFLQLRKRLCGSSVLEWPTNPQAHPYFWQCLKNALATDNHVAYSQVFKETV
The series is described as follows: In vivo target occupancy at TLR7 in cynomolgus monkey assessed as fold increase in CXCL10 mRNA expression in nasal scrape at 3 ng/kg administered intranasally incubated for 24 hrs by TaqMan analysis (reference value: 1.6). The class given is functional. In general terms: Real-time PCR tracks product formation cycle by cycle.

A short description of series [2]: Toxicity in male rat assessed as NOAEL after 14 days. As to conditions: in vivo, time 14 day.
Series [3] is described as follows: Toxicity in monkey assessed as NOAEL after 8 weeks. Details: species or system Macaca mulatta. As to conditions: rhesus monkey, in vivo, 1344 h.
In series [4] the target is T2, Toll-like receptor 9 (Homo sapiens) (UniProt Q9NR96).
T2 sequence (whole entry): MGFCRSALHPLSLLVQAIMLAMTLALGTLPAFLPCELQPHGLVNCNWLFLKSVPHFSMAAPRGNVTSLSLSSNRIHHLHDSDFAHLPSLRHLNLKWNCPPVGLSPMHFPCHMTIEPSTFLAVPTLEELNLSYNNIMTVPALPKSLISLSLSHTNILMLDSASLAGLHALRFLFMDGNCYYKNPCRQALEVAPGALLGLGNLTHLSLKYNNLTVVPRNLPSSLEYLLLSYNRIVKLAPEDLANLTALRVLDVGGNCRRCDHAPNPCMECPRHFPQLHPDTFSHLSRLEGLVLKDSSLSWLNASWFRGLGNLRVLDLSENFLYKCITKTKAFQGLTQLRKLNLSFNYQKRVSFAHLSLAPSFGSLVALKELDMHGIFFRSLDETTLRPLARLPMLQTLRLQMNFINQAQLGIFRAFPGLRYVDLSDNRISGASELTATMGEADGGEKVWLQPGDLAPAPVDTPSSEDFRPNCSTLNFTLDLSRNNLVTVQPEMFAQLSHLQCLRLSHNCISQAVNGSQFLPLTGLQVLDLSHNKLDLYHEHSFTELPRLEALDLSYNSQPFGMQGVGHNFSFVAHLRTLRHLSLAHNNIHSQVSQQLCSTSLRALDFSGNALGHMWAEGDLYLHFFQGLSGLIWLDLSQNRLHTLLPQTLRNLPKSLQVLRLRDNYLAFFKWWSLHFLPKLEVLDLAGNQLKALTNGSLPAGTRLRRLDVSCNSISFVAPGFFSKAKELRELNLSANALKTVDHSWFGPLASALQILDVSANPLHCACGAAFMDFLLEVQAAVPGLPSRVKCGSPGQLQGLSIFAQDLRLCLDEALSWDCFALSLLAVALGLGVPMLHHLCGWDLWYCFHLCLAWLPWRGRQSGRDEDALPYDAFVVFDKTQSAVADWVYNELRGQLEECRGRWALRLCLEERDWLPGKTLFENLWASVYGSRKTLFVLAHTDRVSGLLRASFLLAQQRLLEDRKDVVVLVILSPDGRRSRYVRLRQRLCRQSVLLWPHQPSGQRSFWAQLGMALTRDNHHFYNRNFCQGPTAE
The series is described as follows: Agonist activity at TLR9 (unknown origin) expressed in human HEK cells upto 50 uM by luciferase reporter assay. The class given is cell-based. (Reporter assays use an easily measured gene product as a stand-in for the process of interest.)

As usually defined, the NOAEL is the highest tested level that showed no adverse finding. Turning to `CCC[C@H](C)Oc1nc(N)c2[nH]c(=O)n(CCCCCN3CCCCC3)c2n1` [GSK-2245035], the fold change (FC) in series [1] stood at 230. Also, in series [2], the no observed adverse effect level (NOAEL) at 336 h was 0.453 mg/kg/day. Also, the NOAEL in series [3] was 0.0359 µg/kg. Further, the outcome in series [4] was inactive.
